Measurements from ChEMBL document CHEMBL1201862, “PubChem BioAssay data set” (2004).
Active and inactive are the calls of the source.

Tests used:
[1] = alpha-synuclein stem-loop luciferase translation blockers – H4 neuroglioma cells, luminescence, confirmation (AID 1988); format: functional, cell-based
[2] = luciferase reporter signal suppression in cells – H4 neuroglioma cells, luminescence, dose response (AID 1990); format: functional, cell-based
[3] = Luminescence Cell-Based Dose Response HTS to Identify Inhibitors of 5'UTR Stem-Loop Driven Prion Protein mRNA Translation in H4 Neuroglioblastoma Cells. [Related pubchem assays: 1827 (Project Summary), 1813 (Primary HTS)]; format: functional
[4] = loss of viability in HepG2 cells – cell-based, CellTiter-Glo, cherry-picked, cytotoxicity control for Shn3 inhibitor project, dose response (AID 624134); format: functional
[5] = reduction of Shn3 3'UTR-driven luciferase in osteoblasts – cell-based, Clone20 osteoblasts, firefly luciferase, cherry-picked, dose response (AID 624132); format: functional;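 note: firefly luciferase luminescence from reporter carrying the Shn3 3'UTR in osteoblasts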
cells [6] = format: functional, cell-based
cells [7] = format: functional, cell-based; remark: listed apart in the source
[8] = viability of uninfected HEp-2 cells – cell-based, HTS, cytotoxicity control for RSV inhibitor project, dose response (AID 2410); format: functional; conditions: human respiratory syncytial virus
Cytochrome P450 2C9 = Cytochrome P450 2C9 (Homo sapiens, UniProt P11712)
Cytochrome P450 1A2 = target: T1, Cytochrome P450 1A2 (Homo sapiens, UniProt P05177);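 note: PubChem cytochrome P450 panel assay, CYP1A2 panel member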
T1 sequence (P05177 whole entry): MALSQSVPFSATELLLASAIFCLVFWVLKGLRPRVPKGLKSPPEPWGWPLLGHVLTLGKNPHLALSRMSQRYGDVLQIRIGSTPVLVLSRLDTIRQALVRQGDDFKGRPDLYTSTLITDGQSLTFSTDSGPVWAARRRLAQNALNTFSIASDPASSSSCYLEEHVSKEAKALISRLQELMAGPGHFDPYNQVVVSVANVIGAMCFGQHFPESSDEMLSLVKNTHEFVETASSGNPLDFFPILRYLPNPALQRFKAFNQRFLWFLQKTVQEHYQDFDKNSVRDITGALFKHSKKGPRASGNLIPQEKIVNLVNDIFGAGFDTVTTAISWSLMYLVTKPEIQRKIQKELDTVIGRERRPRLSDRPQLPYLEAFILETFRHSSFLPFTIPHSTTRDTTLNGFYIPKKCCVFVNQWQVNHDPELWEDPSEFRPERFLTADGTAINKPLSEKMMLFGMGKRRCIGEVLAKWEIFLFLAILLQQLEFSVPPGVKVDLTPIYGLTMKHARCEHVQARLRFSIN

Cytochrome P450 2C19 = Cytochrome P450 2C19 (Homo sapiens, UniProt P33261); test: Cytochrome panel assay with activity outcomes. Panel member name: p450-cyp2c19 Compounds with AC50 equal or less than 10 uM are considered active; format: functional
Cytochrome P450 3A4 = Cytochrome P450 3A4 (Homo sapiens, UniProt P08684);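 note: CYP3A4 tested as one member of a cytochrome P450 panel screen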
INS1 = test: INS-1E survival protection against cytokine death – cell-based, luminescence, retest, dose response (AID 449756); format: functional; conditions: Rattus norvegicus, INS1;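 note: cell death triggered by IL-1 beta plus TNF-alpha plus IFN-gamma mixture; protective hits raise ATP signal compared with cytokine alone wells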
Streptokinase A = target: T2, Streptokinase A (Streptococcus pyogenes serotype M1, UniProt P10520); test: viability-normalized secreted streptokinase activity reduction – plasminogen activation absorbance, OD405, dose response (AID 1914); format: functional, Streptococcus pyogenes M1 GAS;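 note: secreted streptokinase activity via plasminogen activation per viability signal from cell pellet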
T2 sequence (P10520 whole entry): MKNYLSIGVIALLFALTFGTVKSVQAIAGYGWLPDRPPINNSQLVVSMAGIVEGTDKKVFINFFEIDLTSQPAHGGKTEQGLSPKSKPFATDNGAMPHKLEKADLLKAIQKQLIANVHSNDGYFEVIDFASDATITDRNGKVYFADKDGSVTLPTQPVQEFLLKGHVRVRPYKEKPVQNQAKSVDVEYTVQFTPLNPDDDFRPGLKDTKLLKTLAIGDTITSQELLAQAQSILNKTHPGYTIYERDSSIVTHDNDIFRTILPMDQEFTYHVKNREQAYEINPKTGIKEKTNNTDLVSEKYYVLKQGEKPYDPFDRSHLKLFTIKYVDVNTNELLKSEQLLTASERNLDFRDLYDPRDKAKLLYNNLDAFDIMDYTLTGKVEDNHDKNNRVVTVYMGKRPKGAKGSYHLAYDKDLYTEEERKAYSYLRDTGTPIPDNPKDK

Streptococcus = test: GAS UMAA2166 growth inhibition – luminescence, BacTiterGlo, counter-screen for streptokinase expression inhibitor project, dose response (AID 1915); format: functional, organism-based;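 note: potency for reduction of bacterial viability or growth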
Paired box protein Pax-8 = Paired box protein Pax-8 (Homo sapiens, UniProt Q06710); test: PAX8 transcriptional activity inhibition in RMG-I – RMG-I cells, luciferase, cherry-pick, dose response (AID 687027); format: functional, cell-based;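 note: luciferase reporter driven by Pax8 target thyroperoxidase promoter measured by SteadyGlo luminescence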
Sequence of Paired box protein Pax-8 (Q06710 whole entry): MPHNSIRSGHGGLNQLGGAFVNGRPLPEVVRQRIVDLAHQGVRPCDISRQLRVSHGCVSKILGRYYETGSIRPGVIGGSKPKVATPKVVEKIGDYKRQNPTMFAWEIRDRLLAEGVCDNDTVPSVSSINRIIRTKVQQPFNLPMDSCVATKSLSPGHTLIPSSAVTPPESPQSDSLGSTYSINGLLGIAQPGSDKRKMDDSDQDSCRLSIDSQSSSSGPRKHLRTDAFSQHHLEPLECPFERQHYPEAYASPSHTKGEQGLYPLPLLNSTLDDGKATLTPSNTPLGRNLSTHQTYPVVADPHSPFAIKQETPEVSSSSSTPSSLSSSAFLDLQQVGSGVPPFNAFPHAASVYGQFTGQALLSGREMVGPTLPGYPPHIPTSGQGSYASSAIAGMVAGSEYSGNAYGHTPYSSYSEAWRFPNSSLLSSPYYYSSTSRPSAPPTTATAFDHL

Sequence of Cytochrome P450 2C19 (P33261 whole entry): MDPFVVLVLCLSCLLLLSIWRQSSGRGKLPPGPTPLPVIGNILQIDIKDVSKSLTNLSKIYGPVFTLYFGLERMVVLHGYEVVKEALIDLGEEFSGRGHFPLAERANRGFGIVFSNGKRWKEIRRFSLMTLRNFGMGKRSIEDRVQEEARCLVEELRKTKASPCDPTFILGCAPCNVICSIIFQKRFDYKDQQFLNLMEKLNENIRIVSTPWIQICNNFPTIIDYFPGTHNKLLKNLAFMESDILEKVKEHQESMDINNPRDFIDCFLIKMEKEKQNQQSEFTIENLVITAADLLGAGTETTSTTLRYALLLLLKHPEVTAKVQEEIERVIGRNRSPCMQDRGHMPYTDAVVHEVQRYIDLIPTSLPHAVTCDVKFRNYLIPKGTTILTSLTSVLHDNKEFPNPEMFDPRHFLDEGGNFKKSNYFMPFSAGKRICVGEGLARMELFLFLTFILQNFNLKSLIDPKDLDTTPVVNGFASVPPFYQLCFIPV
Sequence of Cytochrome P450 3A4 (P08684 whole entry): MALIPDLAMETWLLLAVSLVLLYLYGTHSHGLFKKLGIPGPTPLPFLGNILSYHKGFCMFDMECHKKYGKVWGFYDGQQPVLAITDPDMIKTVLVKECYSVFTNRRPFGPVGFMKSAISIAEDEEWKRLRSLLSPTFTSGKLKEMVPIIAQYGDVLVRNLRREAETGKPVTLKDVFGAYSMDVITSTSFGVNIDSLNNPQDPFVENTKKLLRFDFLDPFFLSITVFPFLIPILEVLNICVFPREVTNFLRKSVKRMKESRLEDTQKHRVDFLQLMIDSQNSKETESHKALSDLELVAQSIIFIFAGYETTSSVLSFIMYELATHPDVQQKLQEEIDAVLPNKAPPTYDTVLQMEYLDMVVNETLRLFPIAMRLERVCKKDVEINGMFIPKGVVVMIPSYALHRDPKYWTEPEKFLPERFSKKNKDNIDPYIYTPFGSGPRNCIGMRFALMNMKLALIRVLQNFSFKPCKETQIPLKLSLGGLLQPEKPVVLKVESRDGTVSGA
Sequence of Cytochrome P450 2C9 (P11712 whole entry): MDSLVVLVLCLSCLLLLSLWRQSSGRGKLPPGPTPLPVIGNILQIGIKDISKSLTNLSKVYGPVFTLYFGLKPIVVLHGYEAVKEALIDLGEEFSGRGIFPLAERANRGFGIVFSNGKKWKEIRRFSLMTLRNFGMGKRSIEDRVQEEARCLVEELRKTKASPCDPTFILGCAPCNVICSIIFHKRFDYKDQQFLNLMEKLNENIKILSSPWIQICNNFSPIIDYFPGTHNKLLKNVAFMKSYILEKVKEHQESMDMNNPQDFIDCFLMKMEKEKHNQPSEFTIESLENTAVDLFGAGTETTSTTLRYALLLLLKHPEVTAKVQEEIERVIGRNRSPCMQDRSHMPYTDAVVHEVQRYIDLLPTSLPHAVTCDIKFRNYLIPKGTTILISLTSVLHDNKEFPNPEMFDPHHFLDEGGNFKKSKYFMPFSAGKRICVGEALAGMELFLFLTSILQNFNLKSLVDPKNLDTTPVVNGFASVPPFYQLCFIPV

Cc1ccc(S(=O)(=O)c2cc3c(=O)n4cccc(C)c4nc3n(Cc3ccncc3)c2=N)cc1
EC50 [1]: > 120 µM (not active) | EC50 [2]: > 120 µM (not active) | EC50 [3]: > 120 µM (not active)

O=C(Nc1ccc(Cl)c(Cl)c1)c1cccc(S(=O)(=O)NCc2cccnc2)c1
AC50 [4]: 6.59 µM (active) | AC50 [5]: 5.39 µM (active)

CCn1nc(NS(=O)(=O)c2ccc(NC(C)=O)cc2)c2cc3cccc(C)c3nc21
EC50 (cells [6]): > 350 µM (not active) | EC50 (cells [7]): > 350 µM (not active)

Cc1cccc2sc(NC(=O)C3CSC4(C)CCC(=O)N34)nc12 (configuration not stated)
EC50 [1]: > 120 µM (not active) | EC50 [2]: > 120 µM (not active) | EC50 [3]: > 120 µM (not active)

Cc1ccc(S(=O)(=O)N(C)C)cc1NC(=O)COC(=O)/C(=C/c1ccc(F)cc1)c1cccs1
CC50 [8]: 29.7 µM (active)

O=C(Nc1ccccn1)C1CCN(c2ncnc3c2nc2n3CCCCC2)CC1
CC50 [8]: 18.5 µM (active)

Cc1c(C(=O)O)oc2ccc(S(=O)(=O)NCc3ccc4c(c3)OCO4)cc12
AC50 (Cytochrome P450 2C9): 3.55 µM (inconclusive) | AC50 (Cytochrome P450 1A2): 14.1 µM (inconclusive)

CN(C)c1ccc(S(=O)(=O)NCC(=O)OCC(=O)Nc2cc(Cl)cc(Cl)c2)cc1[N+](=O)[O-]
EC50 (cells [6]): > 350 µM (not active) | EC50 (cells [7]): > 350 µM (not active)

Cc1ccc(/C=C/C2=NN(Cc3ccccc3)C(=O)CC2)cc1
CC50 [8]: 15 µM (active)

CC(C)(C)C(=O)NC(c1ccc(Cl)cc1)[C@]1(C)C[C@H]1C1CCCCC1 (some centres not stated)
AC50 (Cytochrome P450 2C19; read-out: AC50): 7.94 µM (inconclusive)

N=C(N)SCc1cccc2c(=O)cc(-c3ccccc3)oc12
AC50 (Cytochrome P450 3A4): 3.16 µM (inconclusive) | AC50 (Cytochrome P450 2C19; read-out: AC50): 3.98 µM (inconclusive)

Cc1cccc2[nH]c(CN(C)C(=O)C3CCC(=O)N(C4CC4)C3)nc12 (configuration not stated)
EC50 (cells [6]): > 350 µM (not active) | EC50 (cells [7]): > 350 µM (not active)

CCOC(=O)c1c(C)[nH]c(C(=O)OCC(=O)NC2CCS(=O)(=O)C2)c1C (configuration not stated)
AC50 (Cytochrome P450 2C9): 31.6 µM (inconclusive) | AC50 (Cytochrome P450 2C19): inconclusive

CC(=O)c1cccc(NS(=O)(=O)c2ccc(N/C=C/C(=O)c3ccc(F)cc3)cc2)c1
AC50 (INS1): 4.36 µM (active)

COc1ccccc1NC(=O)CN(C)S(=O)(=O)c1cccc2cccnc12
EC50 (cells [6]): > 350 µM (not active) | EC50 (cells [7]): > 350 µM (not active)

COC(=O)c1ccc(C(=O)OC)c(NC(=O)CSCc2ccc(Br)cc2)c1
AC50 (Cytochrome P450 2C19; read-out: AC50): 2.24 µM (inconclusive)

CC(C)(C)c1csc(NNC(=O)c2ccc(Br)cc2)n1
EC50 (cells [6]): 21 µM (active) | EC50 (cells [7]): > 350 µM (not active) | EC50 (Streptokinase A): > 150 µM (not active) | EC50 (Streptococcus): > 150 µM (not active)

COc1cccc(N2CCN(CC(=O)Nc3ccc(SC(F)F)cc3)CC2)c1
EC50 [1]: > 120 µM (not active) | EC50 [2]: > 120 µM (not active) | EC50 [3]: > 120 µM (not active)

Cc1ccc(F)cc1NC(=O)CSc1nc(Nc2ccccc2)nc(N2CCOCC2)n1
EC50 [1]: 15.6 µM (active) | EC50 [2]: 14.8 µM (active) | EC50 [3]: > 120 µM (not active)

Cc1ccccc1OCC(=O)Nc1ccc(N2CCN(C)CC2)c(Cl)c1
EC50 (cells [6]): > 350 µM (not active) | EC50 (cells [7]): > 350 µM (not active)

O=C1CSc2ccc(C(=O)NCCC3=CCCCC3)cc2N1
AC50 (Cytochrome P450 3A4): 12.6 µM (inconclusive) | AC50 (Cytochrome P450 2C19; read-out: AC50): 7.94 µM (inconclusive)

CC(=O)c1cccc(Nc2nc(-c3ccccc3)cs2)c1
CC50 [8]: 21.2 µM (active)

COc1ccc(C2=NOC(C(=O)Nc3ccc(C(C)=O)cc3)C2)cc1OC (configuration not stated)
AC50 (Cytochrome P450 2C9): 11.2 µM (inconclusive) | AC50 (Cytochrome P450 2C19; read-out: AC50): 22.4 µM (inconclusive) | AC50 (Cytochrome P450 1A2): 6.31 µM (inconclusive)

COc1cccc(C(=O)CN2C(=O)C(C)(C)Oc3ccc(C(=O)N4CCOCC4)cc32)c1
EC50 (cells [6]): > 350 µM (not active) | EC50 (cells [7]): > 350 µM (not active)

N#C/C(=C(\O)C(=O)O)c1ccc(-c2cccc3ccccc23)cc1
AC50 (Cytochrome P450 2C9): 3.16 µM (inconclusive) | AC50 (Cytochrome P450 2C19): inconclusive

CN(C)/C(CN1CCOCC1)=C1\N=C(c2ccccc2)OC1=O
AC50 (Cytochrome P450 2C19; read-out: AC50): 7.94 µM (inconclusive)

O=C(Oc1ccccc1)N1CCC2(CC1)CN(Cc1ccncc1)C2
AC50 (Cytochrome P450 3A4): 12.6 µM (inconclusive) | AC50 (Cytochrome P450 2C19; read-out: AC50): 20 µM (inconclusive) | AC50 (Cytochrome P450 1A2): 10 µM (inconclusive)

CCOc1cc2sc(N3CCC(C(=O)NCCCN4CCCC4=O)CC3)nc2cc1Br
CC50 [8]: 19.8 µM (active)

O=C(Nc1ccc(F)cc1F)c1cccn1-c1ncc(C(F)(F)F)cc1Cl
AC50 (Cytochrome P450 3A4): 28.2 µM (inconclusive) | AC50 (Cytochrome P450 2C9): 39.8 µM (inconclusive) | AC50 (Cytochrome P450 1A2): 14.1 µM (inconclusive)

COc1ccc(C2(C)NC(=O)N(CC(=O)Nc3ccc4c(c3)OCO4)C2=O)cc1OC (configuration not stated)
EC50 [1]: > 120 µM (not active) | EC50 [2]: > 120 µM (not active) | EC50 [3]: > 120 µM (not active)

CCc1noc(C)c1C(=O)Oc1ccc(N(C)S(=O)(=O)c2ccccc2)cc1
CC50 [8]: 26.2 µM (active)

Cc1ccc(S(=O)(=O)N2CCC(C(=O)O)(c3ccccc3)CC2)cc1
AC50 (Cytochrome P450 2C19): inconclusive

CCOC(=O)c1oc2ccccc2c1NC(=O)CN1CCN(C)CC1
EC50 [1]: 7 µM (active) | EC50 [2]: 10.9 µM (active) | EC50 [3]: 17.6 µM (active)

COc1ccc(-c2nnc(NC(=O)c3ccc4c(c3)OCCO4)o2)cc1
EC50 [1]: > 120 µM (not active) | EC50 [2]: > 120 µM (not active) | EC50 [3]: > 120 µM (not active)

COc1ccc(OC)c(Nc2nc(NCCC(C)C)nc(N)c2[N+](=O)[O-])c1
EC50 (cells [6]): > 350 µM (not active) | EC50 (cells [7]): > 350 µM (not active)

Cc1c(C(=O)NCc2ccc3c(c2)OCO3)oc2ccc(Br)cc12
CC50 [8]: 19.1 µM (active)

COc1cccc(C(C#N)N2N=C(C)CC2(C)C)c1O (configuration not stated)
AC50 (Cytochrome P450 2C19; read-out: AC50): 2.24 µM (inconclusive)

O=C(Nc1nc2ccccc2n1CCN1CCCCC1)C1CCCCC1
AC50 (Cytochrome P450 3A4): 17.8 µM (inconclusive) | AC50 (Cytochrome P450 2C19; read-out: AC50): 28.2 µM (inconclusive)

CCOc1ccc(Oc2nc(NCC(C)C)nc(N(C)C)n2)nn1
EC50 [1]: > 120 µM (not active) | EC50 [2]: 115 µM (active) | EC50 [3]: > 120 µM (not active)

COC(=O)C1=C(N)Oc2cc(N(C)C)ccc2C1c1ccccc1OC (configuration not stated)
EC50 [1]: 6.94 µM (active) | EC50 [2]: 11.3 µM (active)

CCCC(=O)C1=C(NCc2ccccc2)CC(C)(C)CC1=O
EC50 (cells [6]): > 350 µM (not active) | EC50 (cells [7]): > 350 µM (not active)

CCOC(=O)c1c(N)n(CCCOC(=O)c2ccco2)c2nc3ccccc3nc12
EC50 [1]: 8.24 µM (active) | EC50 [2]: > 120 µM (not active) | EC50 [3]: > 120 µM (not active)

Cc1cc(C)[n+](Cc2ccccc2)cc1C(N)=O
EC50 (cells [6]): > 350 µM (not active) | EC50 (cells [7]): > 350 µM (not active)

O=S(=O)(c1ccc2c(c1)OCCO2)N1CCC(c2nc(O)c3nnn(Cc4cccc(F)c4)c3n2)CC1
CC50 [8]: 31.9 µM (active)

CN(Cc1ccccc1)C(=O)c1cccc(NC(=O)Cc2ccc([N+](=O)[O-])cc2)c1
AC50 [4]: > 70 µM (inactive) | AC50 [5]: 16.8 µM (active)

CCOC(=O)CC(NC(=O)c1ccco1)c1ccc(OC)cc1 (configuration not stated)
AC50 (Cytochrome P450 2C9): 15.8 µM (inconclusive) | AC50 (Cytochrome P450 1A2): 25.1 µM (inconclusive)

O=S(=O)(c1ccccc1F)N1CC[C@@H]2[C@@H](CO)Nc3ccc(C4=CCCCC4)cc3[C@@H]21
AC50 (Paired box protein Pax-8): 10.5 µM (active)

Cn1/c(=N/C(=O)C2CCCCC2)sc2cc([N+](=O)[O-])ccc21
CC50 [8]: > 50 µM (active)

CC(=O)C(C)Oc1ccc2c3c(c(=O)oc2c1)CCCCC3 (configuration not stated)
CC50 [8]: > 50 µM (active)

O=S(=O)(c1cccc2cnccc12)N1CCNCC1
AC50 (Cytochrome P450 2C19; read-out: AC50): 10 µM (inconclusive) | AC50 (Cytochrome P450 1A2): 39.8 µM (inconclusive)
